Laboratory results taken from patent publication US11505536B2, “Dihydroorotate dehydrogenase inhibitors” (Janssen Biotech, Inc., priority 2019, dated 2022).

What was measured:
[1] = test system: MOLM-13 cells (human acute myeloid leukemia cells); assay: MOLM-13 Cellular Assay; format: cell-based; conditions: 72 hours exposure, cell viability by CellTiter-Glo
In short: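 MOLM-13 AML cells, seeded at 5,000/well in RPMI 1640 with 10% FBS, were treated with compounds right after seeding for 72 h at 37 °C, 5% CO2. Viability read by CellTiter-Glo luminescence.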

human DHODH = human DHODH (Homo sapiens (Human), UniProt Q02127); assay: DHODH Enzymatic Assay; format: biochemical; conditions: purified human DHODH, DCIP absorbance, end-point mode; read-out: hDHODH IC50
Sequence of human DHODH (Q02127 whole entry): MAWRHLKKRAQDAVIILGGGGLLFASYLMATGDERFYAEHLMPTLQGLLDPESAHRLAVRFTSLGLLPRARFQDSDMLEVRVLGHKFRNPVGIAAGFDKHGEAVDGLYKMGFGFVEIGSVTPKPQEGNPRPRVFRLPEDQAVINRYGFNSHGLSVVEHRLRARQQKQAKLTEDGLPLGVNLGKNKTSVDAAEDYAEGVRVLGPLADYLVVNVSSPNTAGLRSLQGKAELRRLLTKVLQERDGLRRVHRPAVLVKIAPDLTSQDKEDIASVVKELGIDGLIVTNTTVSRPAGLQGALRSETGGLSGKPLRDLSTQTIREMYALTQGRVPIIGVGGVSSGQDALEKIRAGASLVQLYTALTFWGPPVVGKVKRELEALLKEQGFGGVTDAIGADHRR
In short: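 Purified human DHODH in […] HEPES pH 7.5, 150 mM NaCl, 0.5 mM EDTA, 0.1% Triton X-100; reaction started with substrate mix of 20 mM DHO, 5 mM CoQ6, 1 mM DCIP. End-point read as DCIP reduction (absorbance ~600 nm) after brequinar quench.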

Row | IC50 [1] [nM] | IC50 ([1]; Homo sapiens, MOLM-13, 72 h) [nM] | IC50 (human DHODH) [nM] | SMILES
1 | 0.1 | ≤ 0.2 | 0.265 | C=C(C)c1cn(-c2c(F)cccc2Cl)c(=O)c2cc(F)c(-n3nc(CO)n(CC)c3=O)cc12 [Example 52, 2-(2-Chloro-6-fluorophenyl)-6-(4-ethyl-3-(hydroxymethyl)-5-oxo-4,5-dihydro-1H-1,2,4-triazol-1-yl)-7-fluoro-4-(prop-1-en-2-yl)isoquinolin-1(2H)-one]
2 |  | 0.7 | 0.778 | CCn1c(CO)nn(-c2cc3c(C(C)C)nn(-c4ccccc4C)c(=O)c3cc2F)c1=O [Example 53, 6-(4-Ethyl-3-(hydroxymethyl)-5-oxo-4,5-dihydro-1H-1,2,4-triazol-1-yl)-7-fluoro-4-isopropyl-2-(o-tolyl)phthalazin-1(2H)-one]
3 |  | 0.4 | 0.433 | CCn1c(CO)nn(-c2cc3c(C(C)C)nn(-c4c(F)cccc4Cl)c(=O)c3cc2F)c1=O [Example 54, 2-(2-Chloro-6-fluorophenyl)-6-(4-ethyl-3-(hydroxymethyl)-5-oxo-4,5-dihydro-1H-1,2,4-triazol-1-yl)-7-fluoro-4-isopropylphthalazin-1(2H)-one]
4 |  | 4 | 8.81 | CCn1c(CO)nn(-c2cc3c(C4(C)CC4)cn(-c4c(F)cccc4Cl)c(=O)c3cc2F)c1=O [Example 58, 2-(2-Chloro-6-fluorophenyl)-6-(4-ethyl-3-(hydroxymethyl)-5-oxo-4,5-dihydro-1H-1,2,4-triazol-1-yl)-7-fluoro-4-(1-methylcyclopropyl)isoquinolin-1(2H)-one]
5 |  | 5 | 2.23 | C=C(C)c1cn(-c2c(C)ccnc2OC)c(=O)c2cc(F)c(-n3nc(CO)n(CC)c3=O)cc12 [Example 59, 6-(4-Ethyl-3-(hydroxymethyl)-5-oxo-4,5-dihydro-1H-1,2,4-triazol-1-yl)-7-fluoro-2-(2-methoxy-4-methylpyridin-3-yl)-4-(prop-1-en-2-yl)isoquinolin-1(2H)-one]
6 |  | 4 | 0.286 | C=C(C)c1cn(-c2c(C)n[nH]c2Cl)c(=O)c2cc(F)c(-n3nc(CO)n(CC)c3=O)cc12 [Example 60, 2-(5-Chloro-3-methyl-1H-pyrazol-4-yl)-6-(4-ethyl-3-(hydroxymethyl)-5-oxo-4,5-dihydro-1H-1,2,4-triazol-1-yl)-7-fluoro-4-(prop-1-en-2-yl)isoquinolin-1(2H)-one]
7 |  | 2 | 0.617 | CCn1c(CO)nn(-c2cc3c(C(C)C)cn(-c4c(C)cnc(OC)c4Cl)c(=O)c3cc2F)c1=O [Example 61, 2-(3-Chloro-2-methoxy-5-methylpyridin-4-yl)-6-(4-ethyl-3-(hydroxymethyl)-5-oxo-4,5-dihydro-1H-1,2,4-triazol-1-yl)-7-fluoro-4-isopropylisoquinolin-1(2H)-one]
8 |  | 2 | 0.836 | C=C(C)c1cn(-c2c(C)cnc(OC)c2Cl)c(=O)c2cc(F)c(-n3nc(CO)n(CC)c3=O)cc12 [Example 62, 2-(3-Chloro-2-methoxy-5-methylpyridin-4-yl)-6-(4-ethyl-3-(hydroxymethyl)-5-oxo-4,5-dihydro-1H-1,2,4-triazol-1-yl)-7-fluoro-4-(prop-1-en-2-yl)isoquinolin-1(2H)-one]
9 |  | 2 | 2.76 | CCn1c(CO)nn(-c2cc3c(C(C)C)cn(-c4cc(OC)ccc4F)c(=O)c3cc2F)c1=O [Example 63, 6-(4-Ethyl-3-(hydroxymethyl)-5-oxo-4,5-dihydro-1H-1,2,4-triazol-1-yl)-7-fluoro-2-(2-fluoro-5-methoxyphenyl)-4-isopropylisoquinolin-1(2H)-one]
10 |  | 0.5 | 0.459 | CCn1c(CO)nn(-c2cc3c(C(C)C)cn(-c4ccc(F)cc4C)c(=O)c3cc2F)c1=O [Example 64, 6-(4-Ethyl-3-(hydroxymethyl)-5-oxo-4,5-dihydro-1H-1,2,4-triazol-1-yl)-7-fluoro-2-(4-fluoro-2-methylphenyl)-4-isopropylisoquinolin-1(2H)-one]
11 |  | 20 | 1.65 | C=C(C)c1cn(-c2cccc(OCCO)c2Cl)c(=O)c2cc(F)c(-n3nc(CO)n(CC)c3=O)cc12 [Example 65, 2-(2-Chloro-3-(2-hydroxyethoxy)phenyl)-6-(4-ethyl-3-(hydroxymethyl)-5-oxo-4,5-dihydro-1H-1,2,4-triazol-1-yl)-7-fluoro-4-(prop-1-en-2-yl)isoquinolin-1(2H)-one]
12 |  | 0.3 | < 0.169 | C=C(C)c1cn(-c2ccccc2F)c(=O)c2cc(F)c(-n3nc(CO)n(CC)c3=O)cc12 [Example 66, 6-(4-Ethyl-3-(hydroxymethyl)-5-oxo-4,5-dihydro-1H-1,2,4-triazol-1-yl)-7-fluoro-2-(2-fluorophenyl)-4-(prop-1-en-2-yl)isoquinolin-1(2H)-one]
13 |  | 0.9 | 0.605 | CCn1c(CO)nn(-c2cc3c(C(C)C)cn(-c4cc(F)ccc4C)c(=O)c3cc2F)c1=O [Example 67, 6-(4-Ethyl-3-(hydroxymethyl)-5-oxo-4,5-dihydro-1H-1,2,4-triazol-1-yl)-7-fluoro-2-(5-fluoro-2-methylphenyl)-4-isopropylisoquinolin-1(2H)-one]
14 |  | 3 | 2.2 | CCn1c(CO)nn(-c2cc3c(C(C)C)cn(-c4cc(F)ccc4F)c(=O)c3cc2F)c1=O [Example 68, 2-(2,5-Difluorophenyl)-6-(4-ethyl-3-(hydroxymethyl)-5-oxo-4,5-dihydro-1H-1,2,4-triazol-1-yl)-7-fluoro-4-isopropylisoquinolin-1(2H)-one]
15 |  | 0.7 | 0.435 | CCn1c(CO)nn(-c2cc3c(C(C)C)cn(-c4c(C)cccc4F)c(=O)c3cc2F)c1=O [Example 69, 6-(4-Ethyl-3-(hydroxymethyl)-5-oxo-4,5-dihydro-1H-1,2,4-triazol-1-yl)-7-fluoro-2-(2-fluoro-6-methylphenyl)-4-isopropylisoquinolin-1(2H)-one]
16 |  | 0.4 | 0.24 | C=C(C)c1cn(-c2cccc(OC)c2Cl)c(=O)c2cc(F)c(-n3nc(CO)n(CC)c3=O)cc12 [Example 70, 2-(2-Chloro-3-methoxyphenyl)-6-(4-ethyl-3-(hydroxymethyl)-5-oxo-4,5-dihydro-1H-1,2,4-triazol-1-yl)-7-fluoro-4-(prop-1-en-2-yl)isoquinolin-1(2H)-one]
17 |  | 10 | 2.02 | C=C(C)c1cn(-c2c(C)cnc(OC)c2C)c(=O)c2cc(F)c(-n3nc(CO)n(CC)c3=O)cc12 [Example 71, 6-(4-Ethyl-3-(hydroxymethyl)-5-oxo-4,5-dihydro-1H-1,2,4-triazol-1-yl)-7-fluoro-2-(2-methoxy-3,5-dimethylpyridin-4-yl)-4-(prop-1-en-2-yl)isoquinolin-1(2H)-one]
18 |  | 2 | 0.946 | C=C(C)c1cn(-c2cc(F)ccc2F)c(=O)c2cc(F)c(-n3nc(CO)n(CC)c3=O)cc12 [Example 72, 2-(2,5-Difluorophenyl)-6-(4-ethyl-3-(hydroxymethyl)-5-oxo-4,5-dihydro-1H-1,2,4-triazol-1-yl)-7-fluoro-4-(prop-1-en-2-yl)isoquinolin-1(2H)-one]
19 |  | 0.7 | 0.562 | C=C(C)c1cn(-c2c(C)cccc2F)c(=O)c2cc(F)c(-n3nc(CO)n(CC)c3=O)cc12 [Example 73, 6-(4-Ethyl-3-(hydroxymethyl)-5-oxo-4,5-dihydro-1H-1,2,4-triazol-1-yl)-7-fluoro-2-(2-fluoro-6-methylphenyl)-4-(prop-1-en-2-yl)isoquinolin-1(2H)-one]
20 |  | 7 | 2.24 | CCn1c(CO)nn(-c2cc3c(C(C)C)cn(-c4cccc(F)c4C)c(=O)c3cc2F)c1=O [Example 74, 6-(4-Ethyl-3-(hydroxymethyl)-5-oxo-4,5-dihydro-1H-1,2,4-triazol-1-yl)-7-fluoro-2-(3-fluoro-2-methylphenyl)-4-isopropylisoquinolin-1(2H)-one]
21 |  | 1 | 0.58 | CCn1c(CO)nn(-c2cc3c(C(C)C)cn(-c4cc(C)ccc4C)c(=O)c3cc2F)c1=O [Example 75, 2-(2,5-Dimethylphenyl)-6-(4-ethyl-3-(hydroxymethyl)-5-oxo-4,5-dihydro-1H-1,2,4-triazol-1-yl)-7-fluoro-4-isopropylisoquinolin-1(2H)-one]
22 |  | 4 | 1.5 | C=C(C)c1cn(-c2ccc(F)cc2C)c(=O)c2cc(F)c(-n3nc(CO)n(CC)c3=O)cc12 [Example 76, 6-(4-Ethyl-3-(hydroxymethyl)-5-oxo-4,5-dihydro-1H-1,2,4-triazol-1-yl)-7-fluoro-2-(4-fluoro-2-methylphenyl)-4-(prop-1-en-2-yl)isoquinolin-1(2H)-one]
23 |  | 3 | 1.86 | CCn1c(CO)nn(-c2cc3c(C(C)C)cn(-c4ccccc4F)c(=O)c3cc2F)c1=O [Example 77, 6-(4-Ethyl-3-(hydroxymethyl)-5-oxo-4,5-dihydro-1H-1,2,4-triazol-1-yl)-7-fluoro-2-(2-fluorophenyl)-4-isopropylisoquinolin-1(2H)-one]
24 |  | 20 | 2.34 | CCn1c(CO)nn(-c2cc3c(C(C)C)cn(-c4c(C)cnc(OC)c4C)c(=O)c3cc2F)c1=O [Example 78, 6-(4-Ethyl-3-(hydroxymethyl)-5-oxo-4,5-dihydro-1H-1,2,4-triazol-1-yl)-7-fluoro-4-isopropyl-2-(2-methoxy-3,5-dimethylpyridin-4-yl)isoquinolin-1(2H)-one]
25 |  | 10 | 17.1 | C=C(C)c1cn(-c2ccccc2C)c(=O)c2cc(C)c(-n3nc(CO)n(CC)c3=O)cc12 [Example 79, 6-(4-Ethyl-3-(hydroxymethyl)-5-oxo-4,5-dihydro-1H-1,2,4-triazol-1-yl)-7-methyl-4-(prop-1-en-2-yl)-2-(o-tolyl)isoquinolin-1(2H)-one]
